Assays:
Experiment in all cases: Off-target kinase profiling (KinaseProfiler)
Assay type in all cases: biochemical
Details in all cases: 10 μM, ATP near Km
[1] = biological target: T1, ALK (Homo sapiens, UniProt Q9UM73)
T1 construct: purchased Millipore, Inc. (KinaseProfiler service)
Protocol: (§1) A representative compound (Example 16) of the invention was tested for off-target kinase activity at a concentration of 10 μM by Millipore, Inc. in their KinaseProfiler™ service against all the kinases available in their full kinase panel. The compound was run in duplicate at a concentration of ATP near the Km for each individual kinase according to Millipore's specifications. The results are shown in Table B. Data are reported as percent of control (POC) and are the average of the two replicates.

[2] = biological target: T2, ALK4 (Homo sapiens, UniProt P36896)
T2 construct: purchased Millipore, Inc. (KinaseProfiler service)
Protocol: as §1

[3] = biological target: T3, CAMK2d (Homo sapiens, UniProt Q13557)
T3 construct: purchased Millipore, Inc. (KinaseProfiler service)
Protocol: as §1

[4] = biological target: T4, CDK2/cyclinA (Homo sapiens, UniProt P24941)
T4 construct: purchased Millipore, Inc. (KinaseProfiler service)
Protocol: as §1

[5] = biological target: T5, CHK2 (Homo sapiens, UniProt O96017)
T5 construct: purchased Millipore, Inc. (KinaseProfiler service)
Protocol: as §1

[6] = biological target: T6, DAPK1 (Homo sapiens, UniProt P53355)
T6 construct: purchased Millipore, Inc. (KinaseProfiler service)
Protocol: as §1

[7] = biological target: T7, DAPK3 (Homo sapiens, UniProt O43293)
T7 construct: purchased Millipore, Inc. (KinaseProfiler service)
Protocol: as §1

[8] = biological target: T8, DCAMKL2 (Homo sapiens, UniProt Q8N568)
T8 construct: purchased Millipore, Inc. (KinaseProfiler service)
Protocol: as §1

[9] = biological target: T9, DDR2 (Homo sapiens, UniProt Q16832)
T9 construct: purchased Millipore, Inc. (KinaseProfiler service)
Protocol: as §1

[10] = biological target: T10, DMPK (Homo sapiens, UniProt Q09013)
T10 construct: purchased Millipore, Inc. (KinaseProfiler service)
Protocol: as §1

[11] = biological target: T11, EGFR (Homo sapiens, UniProt P00533)
T11 construct: purchased Millipore, Inc. (KinaseProfiler service)
Protocol: as §1

[12] = biological target: T12, EphA5 (Homo sapiens, UniProt P54756)
T12 construct: purchased Millipore, Inc. (KinaseProfiler service)
Protocol: as §1

[13] = biological target: T13, EphB3 (Homo sapiens, UniProt P54753)
T13 construct: purchased Millipore, Inc. (KinaseProfiler service)
Protocol: as §1

[14] = biological target: T14, FGFR1 (Homo sapiens, UniProt P11362)
T14 construct: purchased Millipore, Inc. (KinaseProfiler service)
Protocol: as §1

[15] = biological target: T15, Flt4 (Homo sapiens, UniProt P35916)
T15 construct: purchased Millipore, Inc. (KinaseProfiler service)
Protocol: as §1

[16] = biological target: T16, IGF-1R Activated (Homo sapiens, UniProt P08069)
T16 construct: purchased Millipore, Inc. (KinaseProfiler service)
Protocol: as §1

[17] = biological target: T17, IKKbeta (Homo sapiens, UniProt O14920)
T17 construct: purchased Millipore, Inc. (KinaseProfiler service)
Protocol: as §1

[18] = biological target: T18, IRAK1 (Homo sapiens, UniProt P51617)
T18 construct: purchased Millipore, Inc. (KinaseProfiler service)
Protocol: as §1

[19] = biological target: T19, IRR (Homo sapiens, UniProt P14616)
T19 construct: purchased Millipore, Inc. (KinaseProfiler service)
Protocol: as §1

[20] = biological target: T20, JAK3 (Homo sapiens, UniProt P52333)
T20 construct: purchased Millipore, Inc. (KinaseProfiler service)
Protocol: as §1

[21] = biological target: T21, JNK2alpha2 (Homo sapiens, UniProt P45984)
T21 construct: purchased Millipore, Inc. (KinaseProfiler service)
Protocol: as §1

[22] = biological target: T22, MAPKAP-K5 (Homo sapiens, UniProt Q8IW41)
T22 construct: purchased Millipore, Inc. (KinaseProfiler service)
Protocol: as §1

[23] = biological target: T23, NEK2 (Homo sapiens, UniProt P51955)
T23 construct: purchased Millipore, Inc. (KinaseProfiler service)
Protocol: as §1

[24] = biological target: T24, NEK6 (Homo sapiens, UniProt Q9HC98)
T24 construct: purchased Millipore, Inc. (KinaseProfiler service)
Protocol: as §1

[25] = biological target: T25, PDGFRbeta (Homo sapiens, UniProt P09619)
T25 construct: purchased Millipore, Inc. (KinaseProfiler service)
Protocol: as §1

[26] = biological target: T26, PKCeta (Homo sapiens, UniProt P24723)
T26 construct: purchased Millipore, Inc. (KinaseProfiler service)
Protocol: as §1

[27] = biological target: T27, PKCtheta (Homo sapiens, UniProt Q04759)
T27 construct: purchased Millipore, Inc. (KinaseProfiler service)
Protocol: as §1

[28] = biological target: T28, Pim-1 (Homo sapiens, UniProt P11309)
T28 construct: purchased Millipore, Inc. (KinaseProfiler service)
Protocol: as §1

[29] = biological target: T29, Ret (Homo sapiens, UniProt P07949)
T29 construct: purchased Millipore, Inc. (KinaseProfiler service)
Protocol: as §1

[30] = biological target: T30, Ros (Homo sapiens, UniProt P08922)
T30 construct: purchased Millipore, Inc. (KinaseProfiler service)
Protocol: as §1

[31] = biological target: T31, Rsk1 (Homo sapiens, UniProt Q15418)
T31 construct: purchased Millipore, Inc. (KinaseProfiler service)
Protocol: as §1

[32] = biological target: T32, Rsk2 (Homo sapiens, UniProt P51812)
T32 construct: purchased Millipore, Inc. (KinaseProfiler service)
Protocol: as §1

[33] = biological target: T33, Rsk4 (Homo sapiens, UniProt Q9UK32)
T33 construct: purchased Millipore, Inc. (KinaseProfiler service)
Protocol: as §1

[34] = biological target: T34, SGK2 (Homo sapiens, UniProt Q9HBY8)
T34 construct: purchased Millipore, Inc. (KinaseProfiler service)
Protocol: as §1

[35] = biological target: T35, SRC (Homo sapiens, UniProt P12931)
T35 construct: purchased Millipore, Inc. (KinaseProfiler service)
Protocol: as §1

[36] = biological target: T36, SRPK1 (Homo sapiens, UniProt Q96SB4)
T36 construct: purchased Millipore, Inc. (KinaseProfiler service)
Protocol: as §1

[37] = biological target: T37, Syk (Homo sapiens, UniProt P43405)
T37 construct: purchased Millipore, Inc. (KinaseProfiler service)
Protocol: as §1

[38] = biological target: T38, Tie2 (Homo sapiens, UniProt Q02763)
T38 construct: purchased Millipore, Inc. (KinaseProfiler service)
Protocol: as §1

[39] = biological target: T39, Txk (Homo sapiens, UniProt P42681)
T39 construct: purchased Millipore, Inc. (KinaseProfiler service)
Protocol: as §1

[40] = biological target: T40, ZAP-70 (Homo sapiens, UniProt P43403)
T40 construct: purchased Millipore, Inc. (KinaseProfiler service)
Protocol: as §1

[41] = biological target: T41, p38beta (Homo sapiens, UniProt Q15759)
T41 construct: purchased Millipore, Inc. (KinaseProfiler service)
Protocol: as §1

T19 sequence (P14616 27-1297): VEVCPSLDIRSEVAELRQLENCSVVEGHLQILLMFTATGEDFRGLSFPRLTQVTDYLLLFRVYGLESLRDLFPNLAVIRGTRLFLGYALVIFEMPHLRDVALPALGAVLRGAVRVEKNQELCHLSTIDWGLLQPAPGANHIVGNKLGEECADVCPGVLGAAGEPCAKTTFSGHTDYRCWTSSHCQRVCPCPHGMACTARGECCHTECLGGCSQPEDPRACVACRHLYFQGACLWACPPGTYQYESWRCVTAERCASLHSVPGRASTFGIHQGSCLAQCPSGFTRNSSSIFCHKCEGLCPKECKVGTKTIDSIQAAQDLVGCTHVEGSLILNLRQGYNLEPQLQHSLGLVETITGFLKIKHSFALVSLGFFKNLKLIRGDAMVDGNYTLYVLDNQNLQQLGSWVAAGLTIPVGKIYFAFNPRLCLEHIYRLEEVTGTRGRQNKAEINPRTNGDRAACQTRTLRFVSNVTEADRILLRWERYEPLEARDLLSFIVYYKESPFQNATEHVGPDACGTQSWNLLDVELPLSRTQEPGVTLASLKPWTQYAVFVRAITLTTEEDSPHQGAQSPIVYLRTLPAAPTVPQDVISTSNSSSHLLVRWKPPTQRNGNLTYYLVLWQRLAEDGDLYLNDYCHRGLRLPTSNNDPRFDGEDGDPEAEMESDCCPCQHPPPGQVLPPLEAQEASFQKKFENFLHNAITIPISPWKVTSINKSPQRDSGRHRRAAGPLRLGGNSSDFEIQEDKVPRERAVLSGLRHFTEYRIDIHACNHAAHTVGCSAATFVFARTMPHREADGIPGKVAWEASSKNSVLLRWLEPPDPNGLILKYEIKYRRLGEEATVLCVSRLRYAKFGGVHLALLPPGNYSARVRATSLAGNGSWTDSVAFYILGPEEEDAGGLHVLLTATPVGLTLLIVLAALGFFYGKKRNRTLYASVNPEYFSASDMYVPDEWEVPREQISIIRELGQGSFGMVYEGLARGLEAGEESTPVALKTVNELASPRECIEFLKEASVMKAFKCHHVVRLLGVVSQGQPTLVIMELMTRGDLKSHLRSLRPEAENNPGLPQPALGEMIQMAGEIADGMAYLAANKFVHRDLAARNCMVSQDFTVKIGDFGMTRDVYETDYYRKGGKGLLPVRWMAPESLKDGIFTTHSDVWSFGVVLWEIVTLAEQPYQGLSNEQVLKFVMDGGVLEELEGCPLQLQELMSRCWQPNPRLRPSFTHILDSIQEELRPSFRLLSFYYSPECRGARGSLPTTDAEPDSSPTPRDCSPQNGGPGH
T33 sequence (Q9UK32 whole entry): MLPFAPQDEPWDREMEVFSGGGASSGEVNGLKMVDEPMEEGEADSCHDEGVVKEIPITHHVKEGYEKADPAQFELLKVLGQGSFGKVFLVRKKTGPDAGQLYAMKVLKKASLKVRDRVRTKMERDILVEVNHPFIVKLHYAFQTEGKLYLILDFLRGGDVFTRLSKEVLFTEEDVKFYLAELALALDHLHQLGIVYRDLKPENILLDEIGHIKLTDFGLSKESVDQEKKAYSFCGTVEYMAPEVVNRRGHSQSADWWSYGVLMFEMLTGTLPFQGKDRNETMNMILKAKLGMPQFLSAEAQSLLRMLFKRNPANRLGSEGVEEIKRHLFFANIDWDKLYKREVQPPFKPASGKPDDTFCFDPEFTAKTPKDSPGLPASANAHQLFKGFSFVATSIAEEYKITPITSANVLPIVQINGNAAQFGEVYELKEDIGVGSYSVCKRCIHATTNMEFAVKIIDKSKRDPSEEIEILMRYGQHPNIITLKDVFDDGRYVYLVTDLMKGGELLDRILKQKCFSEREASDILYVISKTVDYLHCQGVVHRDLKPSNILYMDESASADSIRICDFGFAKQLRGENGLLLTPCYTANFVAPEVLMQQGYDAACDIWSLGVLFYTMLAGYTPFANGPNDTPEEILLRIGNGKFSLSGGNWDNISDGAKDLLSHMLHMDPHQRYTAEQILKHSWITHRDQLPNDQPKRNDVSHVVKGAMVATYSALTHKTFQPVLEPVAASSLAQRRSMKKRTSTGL
T23 sequence (P51955 whole entry): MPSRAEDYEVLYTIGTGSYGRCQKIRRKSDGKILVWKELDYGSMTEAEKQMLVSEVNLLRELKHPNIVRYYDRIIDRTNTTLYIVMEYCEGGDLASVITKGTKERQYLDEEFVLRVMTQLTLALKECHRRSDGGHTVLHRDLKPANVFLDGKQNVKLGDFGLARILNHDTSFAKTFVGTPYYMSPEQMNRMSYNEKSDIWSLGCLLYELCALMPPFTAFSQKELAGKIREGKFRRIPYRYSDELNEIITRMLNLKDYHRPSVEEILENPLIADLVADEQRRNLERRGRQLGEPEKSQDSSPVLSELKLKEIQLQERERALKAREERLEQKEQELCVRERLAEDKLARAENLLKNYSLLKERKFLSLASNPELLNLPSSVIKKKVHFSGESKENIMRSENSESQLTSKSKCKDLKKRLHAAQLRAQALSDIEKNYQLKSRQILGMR
T32 sequence (P51812 whole entry): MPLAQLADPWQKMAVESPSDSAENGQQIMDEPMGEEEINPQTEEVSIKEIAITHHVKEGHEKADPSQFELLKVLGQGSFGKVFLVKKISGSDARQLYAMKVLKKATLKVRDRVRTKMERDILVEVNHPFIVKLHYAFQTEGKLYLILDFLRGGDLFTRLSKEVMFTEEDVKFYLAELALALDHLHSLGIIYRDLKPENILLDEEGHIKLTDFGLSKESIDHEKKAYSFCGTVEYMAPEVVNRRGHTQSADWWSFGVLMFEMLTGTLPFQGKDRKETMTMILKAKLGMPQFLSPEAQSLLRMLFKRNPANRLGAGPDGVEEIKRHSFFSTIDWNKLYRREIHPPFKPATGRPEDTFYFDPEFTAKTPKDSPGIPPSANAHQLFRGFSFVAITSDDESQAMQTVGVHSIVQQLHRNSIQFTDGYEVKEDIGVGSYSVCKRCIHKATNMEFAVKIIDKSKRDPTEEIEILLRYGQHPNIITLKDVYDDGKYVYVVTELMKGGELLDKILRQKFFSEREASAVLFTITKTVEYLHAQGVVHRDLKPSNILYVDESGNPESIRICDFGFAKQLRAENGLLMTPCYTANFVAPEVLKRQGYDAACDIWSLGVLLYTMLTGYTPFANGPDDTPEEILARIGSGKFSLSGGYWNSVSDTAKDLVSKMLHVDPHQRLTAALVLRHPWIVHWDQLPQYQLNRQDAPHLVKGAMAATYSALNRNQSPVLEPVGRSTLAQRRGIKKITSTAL
T12 sequence (P54756 25-1037): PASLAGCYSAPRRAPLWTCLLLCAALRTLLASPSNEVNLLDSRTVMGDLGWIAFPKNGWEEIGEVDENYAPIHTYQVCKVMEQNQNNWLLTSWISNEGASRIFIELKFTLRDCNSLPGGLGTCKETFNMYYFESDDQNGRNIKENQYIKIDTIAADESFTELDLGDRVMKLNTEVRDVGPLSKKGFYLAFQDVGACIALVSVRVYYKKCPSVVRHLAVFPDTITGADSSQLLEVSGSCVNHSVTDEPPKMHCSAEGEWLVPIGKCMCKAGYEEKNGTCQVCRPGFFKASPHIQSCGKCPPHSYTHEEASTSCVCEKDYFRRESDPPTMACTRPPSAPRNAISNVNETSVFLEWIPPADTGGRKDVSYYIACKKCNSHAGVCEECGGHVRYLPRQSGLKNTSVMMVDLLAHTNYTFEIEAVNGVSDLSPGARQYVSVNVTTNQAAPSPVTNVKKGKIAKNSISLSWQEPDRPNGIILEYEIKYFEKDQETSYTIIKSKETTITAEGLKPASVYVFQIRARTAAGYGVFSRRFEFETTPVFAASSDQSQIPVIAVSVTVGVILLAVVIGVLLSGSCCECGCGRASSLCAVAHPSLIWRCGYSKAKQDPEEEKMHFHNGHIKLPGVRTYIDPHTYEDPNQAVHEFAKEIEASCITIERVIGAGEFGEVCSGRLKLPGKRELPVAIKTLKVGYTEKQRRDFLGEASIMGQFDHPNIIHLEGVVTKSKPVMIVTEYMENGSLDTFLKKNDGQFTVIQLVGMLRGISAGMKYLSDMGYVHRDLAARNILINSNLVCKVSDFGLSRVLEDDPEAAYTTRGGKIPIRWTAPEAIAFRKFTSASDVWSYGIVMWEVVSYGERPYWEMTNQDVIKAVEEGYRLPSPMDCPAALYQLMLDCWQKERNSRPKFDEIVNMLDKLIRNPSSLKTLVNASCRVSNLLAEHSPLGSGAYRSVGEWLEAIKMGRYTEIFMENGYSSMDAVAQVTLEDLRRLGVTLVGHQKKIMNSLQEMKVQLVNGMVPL
T39 sequence (P42681 whole entry): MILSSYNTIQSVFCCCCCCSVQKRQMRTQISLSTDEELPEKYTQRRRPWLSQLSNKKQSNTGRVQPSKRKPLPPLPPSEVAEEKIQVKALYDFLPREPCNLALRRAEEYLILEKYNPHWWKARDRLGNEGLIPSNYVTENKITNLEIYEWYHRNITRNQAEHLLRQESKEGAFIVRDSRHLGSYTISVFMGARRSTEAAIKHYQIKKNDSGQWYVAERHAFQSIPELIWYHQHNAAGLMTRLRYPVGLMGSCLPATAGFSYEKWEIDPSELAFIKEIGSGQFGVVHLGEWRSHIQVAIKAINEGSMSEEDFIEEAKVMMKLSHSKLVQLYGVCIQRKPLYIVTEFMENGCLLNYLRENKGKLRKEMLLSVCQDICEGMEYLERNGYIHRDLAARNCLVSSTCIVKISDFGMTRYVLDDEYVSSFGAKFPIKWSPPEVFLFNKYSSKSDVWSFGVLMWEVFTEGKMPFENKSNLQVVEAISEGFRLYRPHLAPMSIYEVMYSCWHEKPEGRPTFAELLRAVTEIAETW
T28 sequence (P11309 whole entry): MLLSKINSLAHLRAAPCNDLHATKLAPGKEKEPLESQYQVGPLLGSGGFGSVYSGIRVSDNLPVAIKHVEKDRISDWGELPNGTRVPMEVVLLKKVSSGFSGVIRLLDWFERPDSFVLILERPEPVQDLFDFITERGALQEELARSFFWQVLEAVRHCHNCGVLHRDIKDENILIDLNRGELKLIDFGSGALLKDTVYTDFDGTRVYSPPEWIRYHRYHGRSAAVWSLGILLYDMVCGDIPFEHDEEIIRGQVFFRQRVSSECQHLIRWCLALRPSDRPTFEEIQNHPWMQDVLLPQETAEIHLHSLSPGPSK

Compound: COCc1ccc2cccc(NC(=O)Nc3c(C)c(-c4cnn(C)c4)nn3-c3ccccc3)c2c1 [Example 16, 1-(1′,4-dimethyl-1-phenyl-1H,1′H-[3,4′-bipyrazol]-5-yl)-3-(7-(methoxymethyl)naphthalen-1-yl)urea]
- Avg POC [1]: 114.5 POC
- Avg POC [2]: 104.5 POC
- Avg POC [3]: 106.5 POC
- Avg POC [4]: 136 POC
- Avg POC [5]: 110.5 POC
- Avg POC [6]: 118 POC
- Avg POC [7]: 120 POC
- Avg POC [8]: 175 POC
- Avg POC [9]: 117.5 POC
- Avg POC [10]: 110.5 POC
- Avg POC [11]: 106 POC
- Avg POC [12]: 118.5 POC
- Avg POC [13]: 102.5 POC
- Avg POC [14]: 116 POC
- Avg POC [15]: 108 POC
- Avg POC [16]: 101 POC
- Avg POC [17]: 130.5 POC
- Avg POC [18]: 125 POC
- Avg POC [19]: 102.5 POC
- Avg POC [20]: 131.5 POC
- Avg POC [21]: 126.5 POC
- Avg POC [22]: 122.5 POC
- Avg POC [23]: 105.5 POC
- Avg POC [24]: 120 POC
- Avg POC [25]: 136.5 POC
- Avg POC [26]: 122 POC
- Avg POC [27]: 124.5 POC
- Avg POC [28]: 124.5 POC
- Avg POC [29]: 115 POC
- Avg POC [30]: 117.5 POC
- Avg POC [31]: 226.5 POC
- Avg POC [32]: 139.5 POC
- Avg POC [33]: 126.5 POC
- Avg POC [34]: 147.5 POC
- Avg POC [35]: 121.5 POC
- Avg POC [36]: 119 POC
- Avg POC [37]: 117.5 POC
- Avg POC [38]: 148.5 POC
- Avg POC [39]: 131 POC
- Avg POC [40]: 118 POC
- Avg POC [41]: 117 POC

From patent publication US9546156B2, “N-bicyclic aryl,N'-pyrazolyl urea, thiourea, guanidine cyanoguanidine compounds as TrkA kinase inhibitors” (Array BioPharma Inc., priority 2012, dated 2017)
